Measurements taken from BindingDB's records for doi:10.1021/acs.jmedchem.9b00568 (University of Central Florida, 2020).

Experiment: Induction of LAT1-mediated polyamine efflux in human L3.6PL cells assessed as reduction in cell viability after 48 hrs by MTS assay

CC(C)CCN1CCN([C@@H](CNCc2ccccc2)CC2CCCCC2)C[C@@H]1CC(C)C
IC50: 3.48 µM
